Results reported in patent US20200069685A1, “Dosing schedule for a combination of Ceritinib and an anti-PD-1 antibody molecule” (NOVARTIS AG, priority 2017, published 2020).

Columns and labels:
Assay type in all cases: in vivo, human
[1] = Ceritinib steady state PK (AUC0-24 and Cmax) in the ceritinib and nivolumab combination cohorts; conditions: preliminary; ceritinib in combination with nivolumab
Procedure: The doses were reduced from 750 mg in the steps of 150 mg down to the lowest 300 mg. If the patient required doses lower than 300 mg, ceritinib was discontinued. Approximately 54% of patients initiating treatment at the recommended dose of 750 mg fasted required at least one dose adjustment due to adverse reaction, with a median time to first dose reduction of approximately 7 weeks. However, based on the preliminary data from 36 patients, who were enrolled to 4 cohorts to the concomitant combination therapy of ceritinib and nivolumab, the rates of severe rash (even grade 3) were unexpectedly higher. The cohorts were as follows: cohort 1 (n=8), ceritinib 450 mg daily with a low fat meal in combination with nivolumab 3 mg/kg Q2W; cohort 2 (n=6), ceritinib 450 mg daily with a low fat meal in combination with nivolumab 3 mg/kg Q2W; cohort 3 (n=11), ceritinib 300 mg daily with a low fat meal in combination with nivolumab 3 mg/kg Q2W; cohort 4 (n=11), ceritinib 300 mg daily with a low fat meal in combination with nivolumab 3 mg/kg Q2W. Both dose levels, i.e. 450 mg and 300 mg of ceritinib, administered with the low fat meal led to severe rash. The 450 mg dose level had higher rates of some adverse events, especially grade-3 rash, than expected based on data from either single agent. […]

[2] = Food effect study of ceritinib in healthy subjects; conditions: single oral dose 500 mg
[3] = Relative bioavailability study in healthy subjects, light snack cohort; conditions: light snack (approximately 100-300 calories and 1.5 grams of fat), single 750 mg oral dose
[4] = Ceritinib alone: side effects and dose adjustments in patients
Procedure: The doses were reduced from 750 mg in the steps of 150 mg down to the lowest 300 mg. If the patient required doses lower than 300 mg, ceritinib was discontinued. Approximately 54% of patients initiating treatment at the recommended dose of 750 mg fasted required at least one dose adjustment due to adverse reaction, with a median time to first dose reduction of approximately 7 weeks. However, based on the preliminary data from 36 patients, who were enrolled to 4 cohorts to the concomitant combination therapy of ceritinib and nivolumab, the rates of severe rash (even grade 3) were unexpectedly higher. The cohorts were as follows: cohort 1 (n=8), ceritinib 450 mg daily with a low fat meal in combination with nivolumab 3 mg/kg Q2W; cohort 2 (n=6), ceritinib 450 mg daily with a low fat meal in combination with nivolumab 3 mg/kg Q2W; cohort 3 (n=11), ceritinib 300 mg daily with a low fat meal in combination with nivolumab 3 mg/kg Q2W; cohort 4 (n=11), ceritinib 300 mg daily with a low fat meal in combination with nivolumab 3 mg/kg Q2W. Both dose levels, i.e. 450 mg and 300 mg of ceritinib, administered with the low fat meal led to severe rash. The 450 mg dose level had higher rates of some adverse events, especially grade-3 rash, than expected based on data from either single agent. The proportion of patients with grade-3 rash was higher at the 450 mg dose level, 4/14 patients (29%), than at the 300 mg dose level, 3/22 patients (14%). With regard to the efficacy of the combination therapy, of the 14 patients treated at the 450 mg dose level, 9 (64%) achieved a confirmed partial response. Of the 22 patients treated at the 300 mg dose level, 4 (18%) achieved a confirmed complete (1 patient) or partial (3 patients) response; however, limited follow up, especially for cohort 4, confounded the assessment of confirmed response. The disease control rate (DCR) was similar for the 450 mg and 300 mg dose levels, 79% and 82% respectively. […] However, the 300 mg dose level appeared to have a lower number of objective responses, although this observation was based on a small number of patients with limited follow-up. […] Therefore, based on the safety, efficacy, and PK data a new beneficial dosing regimen is provided that is expected to improve tolerability while maintaining exposure similar to that observed at the 450 mg dose level. We provide herein a dosing regimen for the combination therapy of ceritinib and an anti-PD-1 antibody molecule, where ceritinib is administered for 2 cycles before initiation of combination therapy with nivolumab. […]

[5] = high-fat meal (approximately 1000 calories and 58 grams of fat)
[6] = low-fat meal (approximately 330 calories and 9 grams of fat)

steady state exposure (AUC0-24 and Cmax) at 300 mg with food relative to 450 mg with food [1]: 60-65%
increase of AUCinf compared to the fasted state [2, 5]: 73%
increase of Cmax compared to the fasted state [2, 5]: 41%
increase of AUCinf compared to the fasted state [2, 6]: 58%
increase of Cmax compared to the fasted state [2, 6]: 43%
increase of AUCinf compared to the fasted condition [3]: 54%
increase of Cmax compared to the fasted condition [3]: 45%
SMILES: Cc1cc(Nc2ncc(Cl)c(Nc3ccccc3S(=O)(=O)C(C)C)n2)c(OC(C)C)cc1C1CCNCC1 [ceritinib, 5-chloro-N2-(2-isopropoxy-5-methyl-4-(piperidin-4-yl)phenyl)-N4-[2-(propane-2-sulfonyl)-phenyl]-pyrimidine-2,4-diamine]
rash [4]: observed rarely
side effects observed [4]: nausea, diarrhea, vomiting, fatigue, ALT/AST elevation, constipation, abdominal pain
median time to first dose reduction ([4]; 750 mg fasted): approximately 7 weeks
patients who required at least one dose adjustment due to adverse reaction ([4]; recommended dose of 750 mg fasted): Approximately 54%
